Source: patent publication US9115093B2, “Substituted bicyclic dihydropyrimidinones and their use as inhibitors of neutrophil elastase activity” (Boehringer Ingelheim International GmbH, priority 2013, dated 2015)

target: T1, neutrophil elastase (Homo sapiens, UniProt P08246); assay: Human Neutrophil Elastase Assay; format: biochemical; set-up: purchased Calbiochem 324681; conditions: substrate MeOSuc-Ala-Ala-Pro-Val-AMC, pH 7.5, room temperature
T1 sequence (P08246 30-247 limits assumed): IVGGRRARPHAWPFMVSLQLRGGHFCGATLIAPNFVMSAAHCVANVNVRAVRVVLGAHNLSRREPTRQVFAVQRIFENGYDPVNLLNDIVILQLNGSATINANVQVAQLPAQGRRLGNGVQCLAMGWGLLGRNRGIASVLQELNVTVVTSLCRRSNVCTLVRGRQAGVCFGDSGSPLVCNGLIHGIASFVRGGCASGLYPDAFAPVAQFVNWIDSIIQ
Procedure: Human Neutrophil Elastase Assay
Materials: Human neutrophil elastase was purchased from Calbiochem (Cat.No.: 324681) and the elastase substrate MeOSuc-Ala-Ala-Pro-Val-AMC from Bachem (Cat.No.: I-1270). All other materials were of the highest grade commercially available.
The following buffers were used: Compound buffer: 100 mM Tris, 500 mM NaCl, adjusted to pH 7.5; Assay buffer: 100 mM Tris, 500 mM NaCl, adjusted to pH 7.5, containing 0.01% BSA.
Assay conditions: Test compounds were prediluted in DMSO and subsequently in compound buffer (5% DMSO final). 5 μL of these compound dilutions were mixed with 10 μl Neutrophil elastase (9 ng/ml in assay buffer) in a black 384 well OptiPlate (Perkin Elmer, Cat No.: 6007270) and incubated for 15 min at room temperature. Subsequently 10 μL substrate solution in assay buffer were added (250 nM final concentration) and the plates were incubated for 60 min at room temperature. After inactivation of the enzyme, fluorescence intensities were measured at 380 nm excitation and 460 nm emission wavelengths.
Each plate contains wells with a high value control (DMSO+enzyme+substrate) and wells with a low value control (DMSO+inactivated enzyme+substrate). IC50 values were estimated using a sigmoidal concentration response curve with variable slope. Means of low values were taken as 0%, means of high values as 100%.

Row | Compound | IC50 [nM]
1 | CN1CCC(NC(=O)CN2C(=O)N(c3cccc(C(F)(F)F)c3)C3=C(C(=O)CCC3)C2c2ccc(C#N)cc2)CC1 (stereo not drawn) [Example 36.38] | 16.9
2 | CN1CCCC1CNC(=O)CN1C(=O)N(c2cccc(C(F)(F)F)c2)C2=C(C(=O)CCC2)C1c1ccc(C#N)cc1 (stereo not drawn) [Example 36.39] | 26.3
3 | COC1CCN(C(=O)CN2C(=O)N(c3cccc(C(F)(F)F)c3)C3=C(C(=O)CCC3)C2c2ccc(C#N)cc2)CC1 (stereo not drawn) [Example 36.40] | 3.1
4 | CN(CC1(C)COC1)C(=O)CN1C(=O)N(c2cccc(C(F)(F)F)c2)C2=C(C(=O)CCC2)C1c1ccc(C#N)cc1 (stereo not drawn) [Example 36.41] | 7.4
5 | N#Cc1ccc(C2C3=C(CCCC3=O)N(c3cccc(C(F)(F)F)c3)C(=O)N2CC(=O)NCC2CCCOC2)cc1 (stereo not drawn) [Example 36.42] | 9.9
6 | CN(C)CCCN(C)C(=O)CN1C(=O)N(c2cccc(C(F)(F)F)c2)C2=C(C(=O)CCC2)C1c1ccc(C#N)cc1 (stereo not drawn) [Example 36.43] | 12.1
7 | N#Cc1ccc(C2C3=C(CCCC3=O)N(c3cccc(C(F)(F)F)c3)C(=O)N2CC(=O)N2Cc3ccccc3C2)cc1 (stereo not drawn) [Example 36.44] | 9.3
8 | N#Cc1ccc(C2C3=C(CCCC3=O)N(c3cccc(C(F)(F)F)c3)C(=O)N2CC(=O)N2CC[S+]([O-])CC2)cc1 (stereo not drawn) [Example 36.45] | 2.1
9 | N#Cc1ccc(C2C3=C(CCCC3=O)N(c3cccc(C(F)(F)F)c3)C(=O)N2CC(=O)N2Cc3cccnc3C2)cc1 (stereo not drawn) [Example 36.46] | 1.2
10 | CN(Cc1ccccc1)C(=O)CN1C(=O)N(c2cccc(C(F)(F)F)c2)C2=C(C(=O)CCC2)C1c1ccc(C#N)cc1 (stereo not drawn) [Example 36.47] | 13.8
11 | N#Cc1ccc(C2C3=C(CCCC3=O)N(c3cccc(C(F)(F)F)c3)C(=O)N2CC(=O)N2CCn3cccc3C2)cc1 (stereo not drawn) [Example 36.48] | 6.2
12 | N#Cc1ccc(C2C3=C(CCCC3=O)N(c3cccc(C(F)(F)F)c3)C(=O)N2CC(=O)N2CCn3cncc3C2)cc1 (stereo not drawn) [Example 36.49] | 2.6
13 | N#Cc1ccc(C2C3=C(CCCC3=O)N(c3cccc(C(F)(F)F)c3)C(=O)N2CC(=O)N2CCn3nccc3C2)cc1 (stereo not drawn) [Example 36.51] | 1.7
14 | N#Cc1ccc(C2C3=C(CCCC3=O)N(c3cccc(C(F)(F)F)c3)C(=O)N2CC(=O)NCc2ccc(=O)[nH]c2)cc1 (stereo not drawn) [Example 36.52] | 11.7
15 | Cn1cc(NC(=O)CN2C(=O)N(c3cccc(C(F)(F)F)c3)C3=C(C(=O)CCC3)C2c2ccc(C#N)cc2)ccc1=O (stereo not drawn) [Example 36.53] | 10.7
16 | CN(Cc1cnn(C)c1)C(=O)CN1C(=O)N(c2cccc(C(F)(F)F)c2)C2=C(C(=O)CCC2)C1c1ccc(C#N)cc1 (stereo not drawn) [Example 36.54] | 2.9
17 | N#Cc1ccc(C2C3=C(CCCC3=O)N(c3cccc(C(F)(F)F)c3)C(=O)N2CC(=O)N2CCN(C3CC3)CC2)cc1 (stereo not drawn) [Example 36.55] | 21.6
18 | N#Cc1ccc(C2C3=C(CCCC3=O)N(c3cccc(C(F)(F)F)c3)C(=O)N2CC(=O)N2CCN3CCCC3C2)cc1 (stereo not drawn) [Example 36.56] | 8
19 | CN1C(=O)CCC1CNC(=O)CN1C(=O)N(c2cccc(C(F)(F)F)c2)C2=C(C(=O)CCC2)C1c1ccc(C#N)cc1 (stereo not drawn) [Example 36.57] | 10.4
20 | N#Cc1ccc(C2C3=C(CCCC3=O)N(c3cccc(C(F)(F)F)c3)C(=O)N2CC(=O)NCCN2CCCC2=O)cc1 (stereo not drawn) [Example 36.58] | 10
21 | CN1CC(CNC(=O)CN2C(=O)N(c3cccc(C(F)(F)F)c3)C3=C(C(=O)CCC3)C2c2ccc(C#N)cc2)CC1=O (stereo not drawn) [Example 36.59] | 8.6
22 | CC(=O)N1CCN(C(=O)CN2C(=O)N(c3cccc(C(F)(F)F)c3)C3=C(C(=O)CCC3)C2c2ccc(C#N)cc2)CC1 (stereo not drawn) [Example 36.60] | 3.7
23 | N#Cc1ccc(C2C3=C(CCCC3=O)N(c3cccc(C(F)(F)F)c3)C(=O)N2CC(=O)NCCN2CCOCC2)cc1 (stereo not drawn) [Example 36.63] | 13.9
24 | N#Cc1ccc(C2C3=C(CCCC3=O)N(c3cccc(C(F)(F)F)c3)C(=O)N2CC(=O)N2CCc3cnccc3C2)cc1 (stereo not drawn) [Example 36.64] | 5.6
25 | Cc1nc2c(o1)CN(C(=O)CN1C(=O)N(c3cccc(C(F)(F)F)c3)C3=C(C(=O)CCC3)C1c1ccc(C#N)cc1)CC2 (stereo not drawn) [Example 36.65] | 16.2
26 | CN1CCC2(CCN(C(=O)CN3C(=O)N(c4cccc(C(F)(F)F)c4)C4=C(C(=O)CCC4)C3c3ccc(C#N)cc3)C2)C1 (stereo not drawn) [Example 36.66] | 5.8

Row | Compound | IC50 [nM]
27 | CN(CCN1CCCC1=O)C(=O)CN1C(=O)N(c2cccc(C(F)(F)F)c2)C2=C(C(=O)CCC2)C1c1ccc(C#N)cc1 (stereo not drawn) [Example 36.67] | 4.2
28 | CN(CCN1CCOCC1)C(=O)CN1C(=O)N(c2cccc(C(F)(F)F)c2)C2=C(C(=O)CCC2)C1c1ccc(C#N)cc1 (stereo not drawn) [Example 36.68] | 8.7
29 | CN(C(=O)CN1C(=O)N(c2cccc(C(F)(F)F)c2)C2=C(C(=O)CCC2)C1c1ccc(C#N)cc1)C1CCS(=O)(=O)C1 (stereo not drawn) [Example 36.69] | 3.1
30 | CS(=O)(=O)C1CCN(C(=O)CN2C(=O)N(c3cccc(C(F)(F)F)c3)C3=C(C(=O)CCC3)C2c2ccc(C#N)cc2)C1 (stereo not drawn) [Example 36.70] | 2.3
31 | N#Cc1ccc(C2C3=C(CCCC3=O)N(c3cccc(C(F)(F)F)c3)C(=O)N2CC(=O)N2CCc3[nH]c(=O)ccc3C2)cc1 (stereo not drawn) [Example 36.71] | 2.2
32 | N#Cc1ccc(C2C3=C(CCCC3=O)N(c3cccc(C(F)(F)F)c3)C(=O)N2CC(=O)N2CCN3C(=O)CCCC3C2)cc1 (stereo not drawn) [Example 36.72] | 3.7
33 | N#Cc1ccc(C2C3=C(CCCC3=O)N(c3cccc(C(F)(F)F)c3)C(=O)N2CC(=O)N2CC(=O)N3CCCCC3C2)cc1 (stereo not drawn) [Example 36.73] | 35.5
34 | N#Cc1ccc(C2C3=C(CCCC3=O)N(c3cccc(C(F)(F)F)c3)C(=O)N2CC(=O)N2CCC3(CC2)CNC(=O)O3)cc1 (stereo not drawn) [Example 36.74] | 2.1
35 | CS(=O)(=O)N1CCN(C(=O)CN2C(=O)N(c3cccc(C(F)(F)F)c3)C3=C(C(=O)CCC3)C2c2ccc(C#N)cc2)CC1 (stereo not drawn) [Example 36.75] | 2.4
36 | CS(=O)(=O)c1ccc(CNC(=O)N2C(=O)N(c3cccc(C(F)(F)F)c3)C3=C(C(=O)CCC3)C2c2ccc(C#N)cc2)cc1 (stereo not drawn) [Example 37, 4-(4-Cyanophenyl)-N-(4-(methylsulfonyl)benzyl)-2,5-dioxo-1-(3-(trifluoromethyl)-phenyl)-1,2,5,6,7,8-hexahydroquinazoline-3(4H)-carboxamide] | < 1
37 | CN(C)C(=O)N1C(=O)N(c2cccc(C(F)(F)F)c2)C2=C(C(=O)CCC2)C1c1ccc(C#N)cc1 (stereo not drawn) [Example 38, 4-(4-Cyanophenyl)-N,N-dimethyl-2,5-dioxo-1-(3-(trifluoromethyl)phenyl)-1,2,5,6,7,8-hexahydroquinazoline-3(4H)-carboxamide] | 67.1
38 | COCCNC(=O)N1C(=O)N(c2cccc(C(F)(F)F)c2)C2=C(C(=O)CCC2)C1c1ccc(C#N)cc1 (stereo not drawn) [Example 39, 4-(4-Cyanophenyl)-N-(2-methoxyethyl)-2,5-dioxo-1-(3-(trifluoromethyl)phenyl)-1,2,5,6,7,8-hexahydroquinazoline-3(4H)-carboxamide] | 1
39 | CNC(=O)N1C(=O)N(c2cccc(C(F)(F)F)c2)C2=C(C(=O)CCC2)C1c1ccc(C#N)cc1 (stereo not drawn) [Example 39.1] | 1.2
40 | CCCNC(=O)N1C(=O)N(c2cccc(C(F)(F)F)c2)C2=C(C(=O)CCC2)C1c1ccc(C#N)cc1 (stereo not drawn) [Example 39.2] | 1
41 | N#Cc1ccc(C2C3=C(CCCC3=O)N(c3cccc(C(F)(F)F)c3)C(=O)N2C(=O)N2CC(O)C2)cc1 (stereo not drawn) [Example 39.4] | 13.4
42 | N#Cc1ccc(C2C3=C(CCCC3=O)N(c3cccc(C(F)(F)F)c3)C(=O)N2C(=O)NC2COC2)cc1 (stereo not drawn) [Example 39.5] | < 1
43 | N#Cc1ccc(C2C3=C(CCCC3=O)N(c3cccc(C(F)(F)F)c3)C(=O)N2C(=O)NCCCO)cc1 (stereo not drawn) [Example 39.6] | < 1
44 | N#Cc1ccc(C2C3=C(CCCC3=O)N(c3cccc(C(F)(F)F)c3)C(=O)N2C(=O)N2CCOCC2)cc1 (stereo not drawn) [Example 39.7] | 63.3
45 | N#Cc1ccc(C2C3=C(CCCC3=O)N(c3cccc(C(F)(F)F)c3)C(=O)N2C(=O)NCC2CCOC2)cc1 (stereo not drawn) [Example 39.9] | < 1
46 | COC1CCN(C(=O)N2C(=O)N(c3cccc(C(F)(F)F)c3)C3=C(C(=O)CCC3)C2c2ccc(C#N)cc2)C1 (stereo not drawn) [Example 39.10] | 54.8
47 | CN(C)CCN(C)C(=O)N1C(=O)N(c2cccc(C(F)(F)F)c2)C2=C(C(=O)CCC2)C1c1ccc(C#N)cc1 (stereo not drawn) [Example 39.11] | 23.2
48 | C[S+]([O-])CCNC(=O)N1C(=O)N(c2cccc(C(F)(F)F)c2)C2=C(C(=O)CCC2)C1c1ccc(C#N)cc1 (stereo not drawn) [Example 39.12] | < 1
49 | Cn1ccc(CNC(=O)N2C(=O)N(c3cccc(C(F)(F)F)c3)C3=C(C(=O)CCC3)C2c2ccc(C#N)cc2)n1 (stereo not drawn) [Example 39.13] | 1
50 | CN(C(=O)N1C(=O)N(c2cccc(C(F)(F)F)c2)C2=C(C(=O)CCC2)C1c1ccc(C#N)cc1)c1cnn(C)c1 (stereo not drawn) [Example 39.14] | 15
51 | CN1CCC(NC(=O)N2C(=O)N(c3cccc(C(F)(F)F)c3)C3=C(C(=O)CCC3)C2c2ccc(C#N)cc2)C1=O (stereo not drawn) [Example 39.15] | < 1
